Test results reported in patent publication US20050238580A1 (priority 2002, published 2005).

Assays:
intestinal lactase [1] = target: T1, intestinal lactase (Rattus norvegicus, UniProt Q02401); test: Excretion of xylose in urine after oral 4-galactosyl-xylose versus intestinal lactase activity in unweaned rats; assay type: in vivo
T1 construct: hydrolysis of the 4-galactosyl-xylose administered is detected by the action of intestinal lactase; from tissue; host or cells: small-intestinal mucous membrane of living unweaned rats (in vivo); activity also measured post mortem in mucosa homogenate
T1 sequence (Q02401 868-1928): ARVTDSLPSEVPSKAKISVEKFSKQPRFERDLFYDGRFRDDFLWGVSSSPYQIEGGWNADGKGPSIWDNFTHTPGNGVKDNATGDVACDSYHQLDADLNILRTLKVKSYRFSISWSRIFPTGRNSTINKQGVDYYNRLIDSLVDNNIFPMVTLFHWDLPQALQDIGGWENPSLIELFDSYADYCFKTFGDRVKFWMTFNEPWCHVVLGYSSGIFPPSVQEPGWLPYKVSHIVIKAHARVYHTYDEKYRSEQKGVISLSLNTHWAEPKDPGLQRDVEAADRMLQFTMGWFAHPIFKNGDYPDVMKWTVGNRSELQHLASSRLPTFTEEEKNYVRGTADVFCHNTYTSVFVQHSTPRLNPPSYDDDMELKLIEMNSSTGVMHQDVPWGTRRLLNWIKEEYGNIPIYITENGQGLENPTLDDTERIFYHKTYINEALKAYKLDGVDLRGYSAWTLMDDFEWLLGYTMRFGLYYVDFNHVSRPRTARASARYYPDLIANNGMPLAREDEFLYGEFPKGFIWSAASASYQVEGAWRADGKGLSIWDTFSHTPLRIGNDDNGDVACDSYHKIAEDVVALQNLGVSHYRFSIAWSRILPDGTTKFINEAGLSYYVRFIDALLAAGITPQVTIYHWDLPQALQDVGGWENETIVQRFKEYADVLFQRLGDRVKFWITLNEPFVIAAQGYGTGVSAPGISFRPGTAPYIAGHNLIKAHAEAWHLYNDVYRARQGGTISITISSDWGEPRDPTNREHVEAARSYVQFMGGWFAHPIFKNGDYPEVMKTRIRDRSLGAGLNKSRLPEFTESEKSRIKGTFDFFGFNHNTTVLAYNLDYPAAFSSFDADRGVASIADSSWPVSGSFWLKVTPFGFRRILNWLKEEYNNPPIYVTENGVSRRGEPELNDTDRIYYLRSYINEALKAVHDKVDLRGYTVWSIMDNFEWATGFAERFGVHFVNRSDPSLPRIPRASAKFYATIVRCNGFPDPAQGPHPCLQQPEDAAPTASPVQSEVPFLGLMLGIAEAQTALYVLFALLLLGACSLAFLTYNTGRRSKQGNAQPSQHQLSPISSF
From the text: Correlation between the excretion of xylose in urine and the presence of xylose in blood after oral administration of 4-galactosyl-xylose with intestinal lactase activity. This has been shown in unweaned rats comparing during the growth of these animals, the excretion of xylose in urine after orally administering to them 4-galactosyl-xylose, with lactase activity evaluated postmortem in the intestinal mucous membrane, which is known to physiologically reduce during growth. For this purpose, a group comprised of 20 12-day old unweaned rats belonging to two litters fasted for 6 hours by being separated from the mother. […] Immediately after the urine has been collected, four of the animals were sacrificed and the lactase activity in the intestinal mucous membrane was directly evaluated. […] The lactase activity in the homogenized product was measured spectrophotometrically. […] Therein one can see: 1) That the presence of xylose in urine coming from the hydrolysis of the 4-galactosyl-xylose administered is detected by the action of intestinal lactase; 2) That the rate of excretion of xylose in urine caused by oral administration of 4-galactosyl-xylose during the growth of the animals, runs parallel to the known physiological modification of intestinal lactase activity that reduces during growth. […]

intestinal lactase [2] = target: T2, intestinal lactase (Homo sapiens, UniProt P09848); test: Xylose in blood plasma of human volunteers after oral 4-galactosyl-xylose, colorimetric titration with fluoroglucinol; assay type: in vivo
T2 construct: from tissue; host or cells: small-intestinal mucous membrane of living adult human volunteers (in vivo)
Experimental: Oral administration of 3 g of 4-galactosyl-xylose to adult human volunteers with lactose tolerance gave rise to the gradual presence of xylose in blood plasma titrated calorimetrically with fluoroglucinol, that reached a maximum about 2 hours after the intake of the disaccharide. Oral administration of the same amount of 4-galactosyl-xylose to an adult human volunteer with lactose intolerance diagnosed as hypolactasic produced a significant reduction in the amount of xylose evaluated in blood plasma of this individual two hours after the intake of the disaccharide.
The evaluation of xylose in blood after the oral administration of 4-galactosyl-xylose permits non-invasive diagnosis of intestinal lactase deficiency. This has been shown by administering 3 g of 4-galactosyl-xylose to two volunteers with lactose tolerance [individual 1, Example 17 and individual 2, Example 18 (these individuals were also studied in Examples 3 to 6)] and to the hypolactasic individual 12 with lactose intolerance [Example 19 (this individual was also studied in examples 12 and 15]). Xylose was titrated colorimetrically with fluoroglucinol in blood plasma of blood samples obtained from these individuals prior to the intake of the disaccharide and after the intake thereof at approximately 1 hour intervals for 6 hours: in the hypolactasic individual a basal blood sample and another blood sample 2 hours after the intake of the 4-galactosyl-xylose disaccharide were taken. […] In view of the amount of xylose detected in the individual with lactose intolerance 2 hours after the intake of 4-galactosyl-xylose, 0.48 μg/100 μl of plasma and the sensitivity of the titration (minimum detection limit of xylose with fluoroglucinol of […]), the minimum volume of serum or plasma to reliably make the measurement is estimated to be 50 μl, which is equivalent to 0.2 ml of blood (2 to 3 drops).

T2 sequence (P09848 869-1927): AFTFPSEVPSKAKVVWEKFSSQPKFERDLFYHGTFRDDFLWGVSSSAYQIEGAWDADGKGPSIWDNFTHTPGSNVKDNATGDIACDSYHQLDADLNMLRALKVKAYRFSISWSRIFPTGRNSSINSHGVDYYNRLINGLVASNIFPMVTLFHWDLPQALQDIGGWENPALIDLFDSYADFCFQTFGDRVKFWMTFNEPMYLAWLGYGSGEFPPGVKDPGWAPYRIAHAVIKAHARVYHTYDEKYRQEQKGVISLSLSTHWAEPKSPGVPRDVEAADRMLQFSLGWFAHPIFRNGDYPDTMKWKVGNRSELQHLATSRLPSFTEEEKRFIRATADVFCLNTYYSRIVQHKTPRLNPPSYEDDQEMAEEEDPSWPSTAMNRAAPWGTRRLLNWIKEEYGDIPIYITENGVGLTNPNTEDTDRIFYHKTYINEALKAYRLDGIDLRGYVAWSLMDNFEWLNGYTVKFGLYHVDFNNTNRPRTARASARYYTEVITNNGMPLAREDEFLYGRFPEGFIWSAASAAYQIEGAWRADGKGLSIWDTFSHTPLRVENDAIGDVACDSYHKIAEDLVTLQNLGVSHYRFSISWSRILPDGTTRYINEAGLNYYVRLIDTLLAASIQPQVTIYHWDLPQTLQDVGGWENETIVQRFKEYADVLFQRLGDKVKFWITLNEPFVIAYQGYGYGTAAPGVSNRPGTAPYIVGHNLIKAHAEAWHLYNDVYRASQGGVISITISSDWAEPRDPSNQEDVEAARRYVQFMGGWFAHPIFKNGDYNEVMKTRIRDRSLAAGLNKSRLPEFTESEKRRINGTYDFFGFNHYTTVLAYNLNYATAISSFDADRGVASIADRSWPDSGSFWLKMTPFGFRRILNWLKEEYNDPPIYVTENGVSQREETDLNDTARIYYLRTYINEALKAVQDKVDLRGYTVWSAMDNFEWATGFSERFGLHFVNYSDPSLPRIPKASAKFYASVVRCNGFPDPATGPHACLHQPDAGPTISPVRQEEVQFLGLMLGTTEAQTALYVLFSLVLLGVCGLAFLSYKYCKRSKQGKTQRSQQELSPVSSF

For `OCC1O[C@@H](O[C@@H]2COC(O)C(O)[C@H]2O)C(O)[C@@H](O)[C@H]1O` (some centres unmarked), the “linear correlation coefficient (r) between excretion of xylose in urine and intestinal lactase activity” value (intestinal lactase [1]; unweaned rats aged 12 to 35 days, 4 mg oral, urine of 6 hours, lactase evaluated postmortem in intestinal mucous membrane) was 0.96, the “dose dependence of excretion of xylose in urine” value (intestinal lactase [1]; unweaned rats, oral doses from 2 to 32 mg in 0.3 ml of water) was “increases with the increase of the amount of 4-galactosyl-xylose administered” and the “reduction of xylose in plasma, individual 12 versus individual 1” value (intestinal lactase [2]; 3 g oral, 2 hours) was 72%. The “reduction of xylose in plasma, individual 12 versus individual 2” value (intestinal lactase [2]; 3 g oral, 2 hours) was 75%, the “xylose in blood plasma 2 hours after intake” value (intestinal lactase [2]; hypolactasic individual 12, 3 g oral) was 0.48 μg/100 μl of plasma and the “xylose in blood plasma in a similar period of time (2 hours)” value (intestinal lactase [2]; individual 1 with lactose tolerance, 3 g oral) was 1.72 μg/100 ml of plasma. The “xylose in blood plasma in a similar period of time (2 hours)” value (intestinal lactase [2]; individual 2 with lactose tolerance, 3 g oral) was 1.95 μg/100 ml of plasma and the “xylose in blood plasma after 6 hours” value (intestinal lactase [2]; individuals 1 and 2 with lactose tolerance, 3 g oral) was “undetectable”.
